These results are taken from PubChem BioAssay (NCI).

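Cultured in 96-well plates, cells were exposed to test compound for 48 hours across five concentrations. GI50 is the concentration that inhibits growth by half. TGI: total growth inhibition.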 A value given as a limit tells only on which side of the number the result lay.

One may read the GI50 as the concentration that inhibits growth by half. As usually defined, the TGI is the concentration at which net growth stops. Low readings indicate greater sensitivity of the cells, high ones lower sensitivity of the cells.

Assay in all cases: DTP human tumour cell line panel, 48 h
Assay [1] deals with TK-10 renal.
Assay [2] concerns DU-145 prostate.
For assay [3], the system named is SNB-75 CNS.
For assay [4], the system named is CCRF-CEM leukemia.
Assay [5] has as its system KM12 colon.
The subject of assay [6] is NCI-H460 lung.
The subject of assay [7] is MDA-MB-435.
The test system of assay [8] is UACC-257 melanoma.
In assay [9] the test system is HCT-116 colon.
In assay [10] the test system is RXF 393 renal.

In the case of `CCCOc1ccc(/C=N/Nc2cc(C)nc3ccc(Cl)cc23)cc1`, the GI50 in assay [1] is 2.04 µM; in assay [2] it was 1.9 µM; in assay [3] it was 1.94 µM; in [4], 1.78 µM; in assay [5], 1.8 µM; in assay [6], 2.04 µM. Moreover, the GI50 in assay [7] is 1.8 µM; in assay [8] it was 1.79 µM; in [9], 1.7 µM; in [10] it was 1.55 µM. In addition, the TGI turned out to be 3.47 µM in assay [1]; 3.42 µM in assay [2]; 3.54 µM in assay [3]; 4.08 µM in assay [4]; 3.35 µM in [5]; 4.03 µM in assay [6]. Besides, the TGI in assay [7] amounted to 3.24 µM; in [8], 3.32 µM; in [9], 3.32 µM; in assay [10] it was 2.94 µM.
As to `Oc1ccc(Cc2ccc(O)c(C3CC(c4ccc(Cl)cc4)=NN3)c2)cc1C1CC(c2ccc(Cl)cc2)=NN1` (centres undefined), the GI50 was 4.79 µM in assay [1]; 3.22 µM in assay [2]; 3.7 µM in assay [3]; 1.94 µM in [4]; 3.34 µM in assay [5]; 2.19 µM in assay [6]. For the same molecule, the GI50 in [7] was 3.23 µM; in assay [8], 3.1 µM; in [9], 1.72 µM; in assay [10], 3.48 µM. In addition, the total growth inhibition concentration (TGI) in assay [1] is greater than 100 µM; in assay [2], greater than 100 µM; in [3], greater than 82.3 µM; in [4], greater than 100 µM; in [5] it was greater than 67.8 µM; in assay [6], 8.87 µM. Also, the TGI is 20.2 µM in assay [7], 19.2 µM in [8], 5.59 µM in assay [9] and greater than 38.8 µM in [10].
As to `FC(F)(F)c1cc(-c2ncn(/C=C\c3nnco3)n2)cc(C(F)(F)F)c1`, the GI50 in [1] was 0.0803 µM; in [2], 0.315 µM; in assay [3], 0.106 µM; in [4], 0.107 µM; in assay [5] it was 0.346 µM; in [6], 0.0384 µM. For the same molecule, the GI50 in assay [7] was 0.0581 µM; in [8], 0.0673 µM; in assay [9] it was 0.0621 µM; in [10], 0.0216 µM. The TGI in [1] was 12.5 µM; in assay [2] it was 22 µM; in [3] it was 3.65 µM; in [4], greater than 100 µM; in assay [5] it was greater than 32.7 µM; in assay [7] it was 1.51 µM. Moreover, the TGI in assay [8] was greater than 66.4 µM; in assay [9], greater than 41.9 µM; in assay [10], 0.11 µM.
Take `C=C(CN1CCN(c2ccccc2C(F)(F)F)CC1)c1ccc(C(=O)Nc2ccccc2N)cc1`: the GI50 is 4.63 µM in assay [1]; 7.51 µM in [2]; 2.82 µM in assay [3]; 0.0728 µM in [4]; 2.04 µM in assay [5]; 5.59 µM in assay [6]. Also, the GI50 in assay [7] is 2.72 µM; in assay [8], 4.66 µM; in [9] it was 3.09 µM; in assay [10], 1.67 µM. Also, the TGI in assay [1] was greater than 67.7 µM; in assay [2], greater than 49.5 µM; in assay [3], 20.1 µM; in [4], 0.546 µM; in assay [5] it was 11.7 µM; in [6], 43.6 µM. The TGI in assay [7] was greater than 22.6 µM; in assay [8], greater than 62.6 µM; in assay [9], 16.3 µM; in assay [10], 4.78 µM.
`O=Cc1ccc(-c2ccc(-c3ccc(C=O)o3)[se]2)o1`: the GI50 in [1] is 7.73 µM; in [2], greater than 100 µM; in [3], 29.6 µM; in [4] it was greater than 100 µM; in assay [5], greater than 100 µM; in assay [6], greater than 100 µM. Besides, the GI50 was greater than 100 µM in [7], greater than 100 µM in assay [8], greater than 100 µM in [9] and 55.8 µM in assay [10]. The TGI in [1], in assay [2], in assay [3], in [4], in assay [5] and in [6] was greater than 100 µM each time. The TGI in [7], in [8], in [9] and in assay [10] was greater than 100 µM each time.
On to `CCOc1cc(/C=C/C(=O)C(C(=O)/C=C/c2ccc(OC(=O)CNc3nnc(C)s3)c(OCC)c2)C(=O)CNc2nnc(C)s2)ccc1OC(=O)CNc1nnc(C)s1`, for which the GI50 in assay [1] is 3.49 µM; in [2] it was 1.72 µM; in assay [3], 2.93 µM; in assay [4], 0.251 µM; in [5], 1.3 µM; in [6] it was 1.97 µM. In addition, the GI50 in assay [7] is 1.53 µM; in [8] it was 2.81 µM; in assay [9], 0.952 µM; in [10], 1.55 µM. Further, the TGI in [1] is 14.4 µM; in assay [2] it was 4.18 µM; in assay [3] it was 9.77 µM; in assay [4], 1.06 µM; in assay [5], 2.94 µM; in [6], 4.54 µM. Further, the TGI in [7] is 8.7 µM; in assay [8], 9.54 µM; in assay [9], 4.42 µM; in assay [10], 4.85 µM.
Regarding `CCCCN(CC)CCCCCCCCCCN1CCCc2cc(OC)ccc21`, the GI50 was 1.89 µM in assay [1]; 6.48 µM in assay [2]; 3.02 µM in assay [3]; 3 µM in assay [4]; 2.31 µM in assay [5]; 2.52 µM in [6]. For the same molecule, the GI50 is 2.41 µM in assay [7], 3.34 µM in [8], 1.73 µM in assay [9] and 2.34 µM in assay [10]. Besides, the TGI in assay [1] is 3.91 µM; in [2], 53 µM; in [3] it was 11 µM; in assay [4], 12.5 µM; in assay [5] it was 5.14 µM; in [6], 6.6 µM. The TGI was determined as 7.06 µM in assay [7], 9.2 µM in [8], 3.63 µM in assay [9] and 4.93 µM in assay [10].
